# Measured values published in PubChem BioAssay (NCI).
#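 Values below derive from 48-hour exposures of cells grown in 96-well plates, with endpoints linearly interpolated between the two concentrations bracketing the appropriate inhibition level. GI50: concentration for 50% inhibition of growth. TGI is the concentration that stops growth completely.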
# Legend:
# Test in all cases: NCI anticancer screen, dose series, 48 h
# SK-MEL-2 melanoma = tested on: SK-MEL-2 melanoma
# OVCAR-4 ovarian = tested on: OVCAR-4 ovarian
# OVCAR-5 ovarian = tested on: OVCAR-5 ovarian
# M14 melanoma = tested on: M14 melanoma
# NCI-H522 lung = tested on: NCI-H522 lung
# EKVX NSCLC = tested on: EKVX NSCLC
# HOP-92 NSCLC = tested on: HOP-92 NSCLC
# NCI-H23 lung = tested on: NCI-H23 lung
# MOLT-4 leukemia = tested on: MOLT-4 leukemia
# SN12C renal = tested on: SN12C renal
SMILES,GI50 (SK-MEL-2 melanoma),TGI (SK-MEL-2 melanoma),GI50 (OVCAR-4 ovarian),TGI (OVCAR-4 ovarian),GI50 (OVCAR-5 ovarian),TGI (OVCAR-5 ovarian),GI50 (M14 melanoma),TGI (M14 melanoma),GI50 (NCI-H522 lung),TGI (NCI-H522 lung),GI50 (EKVX NSCLC),TGI (EKVX NSCLC),GI50 (HOP-92 NSCLC),TGI (HOP-92 NSCLC),GI50 (NCI-H23 lung),TGI (NCI-H23 lung),GI50 (MOLT-4 leukemia),TGI (MOLT-4 leukemia),GI50 (SN12C renal),TGI (SN12C renal)
COc1cc2nc(-c3ccc(C(F)(F)F)cc3)cc(OCCCN3CCCC3)c2cc1OC,3.41 µM,11.2 µM,3.1 µM,> 86.7 µM,0.803 µM,18.9 µM,0.303 µM,1.05 µM,1.15 µM,25.8 µM,0.848 µM,24.5 µM,0.351 µM,5.68 µM,2.9 µM,17.6 µM,1.42 µM,5.09 µM,0.558 µM,> 42.7 µM
Cn1c(=O)nc2n(-c3ccc(Cl)c(C(F)(F)F)c3)c3ccccc3nc-2c1=O,,> 100 µM,,62.9 µM,,> 100 µM,,> 91.3 µM,,73 µM,,> 83.9 µM,,> 100 µM,,> 83.2 µM,,> 100 µM,,> 100 µM
O=C1c2cccc3cccc(c23)C(=O)N1O,,> 100 µM,,> 100 µM,,> 100 µM,,> 100 µM,,> 100 µM,,> 100 µM,,94.5 µM,,> 100 µM,,> 100 µM,,> 100 µM
CCCCCCCCCCCCCCCCCCOCC(COCCOCC[N+]1(CCCCCC(=O)[O-])CCCC1)Oc1ncccn1 (stereo not given),,20 µM,,4.22 µM,,13.9 µM,,22.7 µM,,7.68 µM,,31.3 µM,,5.93 µM,,18.1 µM,,20.7 µM,,16.7 µM
CCN(CC)c1ccc(/C=C/C2=[N+](C)c3ccccc3C2(C)C)c(C)c1,0.0792 µM,0.582 µM,0.0524 µM,11.2 µM,0.128 µM,16.8 µM,0.0853 µM,1.64 µM,0.0482 µM,0.269 µM,0.0466 µM,7.86 µM,0.0217 µM,0.148 µM,< 0.0244 µM,10.5 µM,0.0512 µM,1.55 µM,0.0738 µM,1.24 µM
N.N.N.N.N.O=S(=O)([O-])S(=O)(=O)[O-].[Co+3],> 100 µM,> 100 µM,> 100 µM,> 100 µM,> 100 µM,> 100 µM,> 100 µM,> 100 µM,> 100 µM,> 100 µM,> 100 µM,> 100 µM,> 100 µM,> 100 µM,> 100 µM,> 100 µM,> 100 µM,> 100 µM,> 100 µM,> 100 µM
COc1cc(C2c3cc4c(cc3[C@@H](Nc3ccc5c(c3)OCCO5)C3COC(=O)[C@H]23)OCO4)cc(OC)c1O (stereo not given in full),,12 µM,,29.3 µM,,16.6 µM,,5.08 µM,,5.43 µM,,17 µM,,4.64 µM,,2.79 µM,,1.02 µM,,10.2 µM
C=C1C(=O)C23C(O)C1CC[C@H]2C12CCCC(C)(COC(C)=O)[C@H]1[C@H](O)[C@]3(O)OC2 (stereo not given in full),,3.49 µM,,5.49 µM,,5.18 µM,,2.84 µM,,0.902 µM,,9.67 µM,,3.02 µM,,3.53 µM,,0.72 µM,,3.44 µM
